In patent publication US4012382A, “α-Amino and α-formyl-α-(p-acyloxyphenyl)acetamidocephalosporanic acid derivatives” (priority 1974, dated 1977):
In brackets after ≈: the same amount, converted by molar mass.

Assays:
Ent. cloacae A9659 = experiment: MIC, 2-fold broth dilution, Ent. cloacae A9659; format: cell-based; conditions: Enterobacter cloacae, Nutrient Broth, 10-4
Description: (§1) Minimal inhibitory concentrations were determined by the 2-fold broth dilution method utilizing equimolar concentrations of each compound.

S. aureus Smith A9537 = experiment: MIC, 2-fold broth dilution, S. aureus Smith A9537; format: cell-based; conditions: Staphylococcus aureus, SMITHA9537, Nutrient Broth, 10-4
Description: as §1

Ent. cloacae A9657 = experiment: MIC, 2-fold broth dilution, Ent. cloacae A9657; format: cell-based; conditions: Enterobacter cloacae, Nutrient Broth, 10-4
Description: as §1

K. pneumoniae A15130 = experiment: MIC, 2-fold broth dilution, K. pneumoniae A15130; format: cell-based; conditions: Klebsiella pneumoniae, Nutrient Broth, 10-4
Description: as §1

D. pneumoniae A9585 = experiment: MIC, 2-fold broth dilution, D. pneumoniae A9585; format: cell-based; conditions: Streptococcus pneumoniae, 10-3 dilution of overnite broth culture, 45% AAB + 5% serum + 50% NB
Description: (§2) *45% AAB + 5% serum + 50% NB
(§3) **Dilution of overnite broth culture
as §1

K. pneumoniae A9977 = experiment: MIC, 2-fold broth dilution, K. pneumoniae A9977; format: cell-based; conditions: Klebsiella pneumoniae, Nutrient Broth, 10-4
Description: as §1

E. coli A9675 = experiment: MIC, 2-fold broth dilution, E. coli A9675; format: cell-based; conditions: Escherichia coli, Nutrient Broth, 10-4
Description: as §1

Str. pyogenes A9604 = experiment: MIC, 2-fold broth dilution, Str. pyogenes A9604; format: cell-based; conditions: Streptococcus pyogenes, 10-3 dilution of overnite broth culture, 45% AAB + 5% serum + 50% NB
Description: as §2, §3, §1

E. coli Juhl A15119 = experiment: MIC, 2-fold broth dilution, E. coli Juhl A15119; format: cell-based; conditions: Escherichia coli, JUHLA15119; Nutrient Broth; 10-4
Description: as §1

Pr. mirabilis A9900 = experiment: MIC, 2-fold broth dilution, Pr. mirabilis A9900; format: cell-based; conditions: Proteus mirabilis, Nutrient Broth, 10-4
Description: as §1

Ps. aeruginosa A9843A = experiment: MIC, 2-fold broth dilution, Ps. aeruginosa A9843A; format: cell-based; conditions: Pseudomonas aeruginosa
Description: as §1

Ser. marcescens A20019 = experiment: MIC, 2-fold broth dilution, Ser. marcescens A20019; format: cell-based; conditions: Serratia marcescens, Nutrient Broth, 10-4
Description: as §1

Sal. enteritidis A9531 = experiment: MIC, 2-fold broth dilution, Sal. enteritidis A9531; format: cell-based; conditions: Salmonella enterica, Nutrient Broth, 10-4
Description: as §1

S. aureus BX1633 A9606 = experiment: MIC, 2-fold broth dilution, S. aureus BX1633 A9606; format: cell-based; conditions: Staphylococcus aureus, BX1633A9606, Nutrient Broth
Description: as §1

Ent. cloacae A9656 = experiment: MIC, 2-fold broth dilution, Ent. cloacae A9656; format: cell-based; conditions: Enterobacter cloacae, Nutrient Broth, 10-4
Description: as §1

Pr. morganii A15153 = experiment: MIC, 2-fold broth dilution, Pr. morganii A15153; format: cell-based; conditions: Morganella morganii, Nutrient Broth, 10-4
Description: as §1

[1] = test system: S. aureus Meth-Res A15097; experiment: MIC, 2-fold broth dilution, S. aureus Meth-Res A15097; format: cell-based; conditions: Staphylococcus aureus; Nutrient Broth; 10-3
Description: as §1

[2] = Hydrolysis in human serum (bioautographed paper chromatography); format: in vitro ADME
Description: (§4) Solutions of 0.5 mg./ml. of 7-D-(-)α-amino-α-p(-acetoxyphenylacetamido)desacetoxycephalosporanic acid (p-acetoxycephalexin) in normal saline and in human serum were prepared. Standard solutions of 0.5 mg./ml. of 7-D-(-)α-amino-α-p(-hydroxyphenylacetamido)desacetoxycephalosporanic acid (p-hydroxycephalexin) were also prepared in both normal saline and human serum.
(§5) All the above solutions were incubated at 37° C. with shaking and sampled for chromatography at time intervals of 0, 2, 4, 8 and 24 hours. The solutions, approximately 5 microliters per strip, were spotted on Whatman No. 1 half-inch strips which were dried and developed in a solvent system containing 80 parts butylacetate; 15 parts n-butanol; 40 parts acetic acid; and 24 parts water. The strips were then bioautographed on plates seeded with bacillus subtilis at a pH of 6.0.

[3] = Stability in normal saline (bioautographed paper chromatography); format: physicochemical; conditions: 0.5 mg./ml. in normal saline, 37° C., sampled 0-24 hours
Description: as §4, §5

CC1=C(C(=O)O)N2C(=O)[C@@H](NC(=O)[C@H](N)c3ccc(O)cc3)[C@H]2SC1 [BL-S 578-4, 7-D-(-)α-amino-α-(p-hydroxyphenylacetamido)desacetoxycephalosporanic acid, reference compound]
MIC (Ent. cloacae A9659): > 125 µg/mL | MIC (S. aureus Smith A9537): 1.3 µg/mL (≈ 3.58 µM) | MIC (S. aureus Smith A9537; + 50% serum): 1.3 µg/mL | MIC (Ent. cloacae A9657): 16 µg/mL (≈ 44 µM) | MIC (K. pneumoniae A15130): 32 µg/mL (≈ 88.1 µM) | MIC (D. pneumoniae A9585): 0.6 µg/mL | MIC (K. pneumoniae A9977): 16 µg/mL (≈ 44 µM) | MIC (E. coli A9675): 32 µg/mL (≈ 88.1 µM) | MIC (Str. pyogenes A9604): 0.08 µg/mL | MIC (E. coli Juhl A15119): 16 µg/mL (≈ 44 µM) | MIC (Pr. mirabilis A9900): 8 µg/mL (≈ 22 µM) | MIC (Ps. aeruginosa A9843A): > 125 µg/mL | MIC (Ser. marcescens A20019): > 125 µg/mL | MIC (Sal. enteritidis A9531): 8 µg/mL (≈ 22 µM) | MIC (S. aureus BX1633 A9606; 10-2): 2 µg/mL (≈ 5.5 µM) | MIC (S. aureus BX1633 A9606; 10-3): 2 µg/mL (≈ 5.5 µM) | MIC (Ent. cloacae A9656): > 125 µg/mL | MIC (Pr. morganii A15153): > 125 µg/mL | MIC [1]: 16 µg/mL (≈ 44 µM)

N[C@@H](C(=O)N[C@@H]1C(=O)N2C(C(=O)O)=C(CSc3c[nH]nn3)CS[C@H]12)c1ccc(O)cc1 [Bl-S640, reference compound]
MIC (Ent. cloacae A9659): 32 µg/mL (≈ 69.2 µM) | MIC (S. aureus Smith A9537): 0.3 µg/mL (≈ 0.649 µM) | MIC (S. aureus Smith A9537; + 50% serum): 1 µg/mL | MIC (Ent. cloacae A9657): 0.5 µg/mL (≈ 1.08 µM) | MIC (K. pneumoniae A15130): 1 µg/mL (≈ 2.16 µM) | MIC (D. pneumoniae A9585): 0.04 µg/mL | MIC (K. pneumoniae A9977): 0.5 µg/mL (≈ 1.08 µM) | MIC (E. coli A9675): 4 µg/mL (≈ 8.65 µM) | MIC (Str. pyogenes A9604): 0.04 µg/mL | MIC (E. coli Juhl A15119): 0.5 µg/mL (≈ 1.08 µM) | MIC (Pr. mirabilis A9900): 0.5 µg/mL (≈ 1.08 µM) | MIC (Ps. aeruginosa A9843A): 125 µg/mL (≈ 270 µM) | MIC (Ser. marcescens A20019): 125 µg/mL (≈ 270 µM) | MIC (Sal. enteritidis A9531): 0.6 µg/mL (≈ 1.3 µM) | MIC (S. aureus BX1633 A9606; 10-2): 1 µg/mL (≈ 2.16 µM) | MIC (S. aureus BX1633 A9606; 10-3): 0.6 µg/mL (≈ 1.3 µM) | MIC (Ent. cloacae A9656): 125 µg/mL (≈ 270 µM) | MIC (Pr. morganii A15153): 63 µg/mL (≈ 136 µM) | MIC [1]: 4 µg/mL (≈ 8.65 µM)

CC(=O)Oc1ccc([C@@H](N)C(=O)N[C@@H]2C(=O)N3C(C(=O)O)=C(C)CS[C@H]23)cc1 [RN 1394, 7-D(-)2-amino-2-(4-acetoxyphenylacetamido)desacetoxycephalosporanic acid]
MIC (Ent. cloacae A9659): > 125 µg/mL | MIC (S. aureus Smith A9537): 0.6 µg/mL (≈ 1.48 µM) | MIC (S. aureus Smith A9537; + 50% serum): 0.6 µg/mL | MIC (Ent. cloacae A9657): 8 µg/mL (≈ 19.7 µM) | MIC (K. pneumoniae A15130): 32 µg/mL (≈ 78.9 µM) | MIC (D. pneumoniae A9585): 0.08 µg/mL | MIC (K. pneumoniae A9977): 16 µg/mL (≈ 39.5 µM) | hydrolysis to the p-hydroxy form in human serum ([2]; 0.5 mg./ml. in human serum, 37° C., sampled 0-24 hours): quickly hydrolyzed to the p-hydroxy form | enzymatic hydrolysis to the p-hydroxy compound ([2]; enzymatic): hydrolyzed enzymatically | MIC (E. coli A9675): 63 µg/mL (≈ 155 µM) | MIC (Str. pyogenes A9604): 0.08 µg/mL | MIC (E. coli Juhl A15119): 32 µg/mL (≈ 78.9 µM) | MIC (Pr. mirabilis A9900): 8 µg/mL (≈ 19.7 µM) | MIC (Ps. aeruginosa A9843A): > 125 µg/mL | MIC (Ser. marcescens A20019): > 125 µg/mL | MIC (Sal. enteritidis A9531): 8 µg/mL (≈ 19.7 µM) | MIC (S. aureus BX1633 A9606; 10-2): 2 µg/mL (≈ 4.93 µM) | MIC (S. aureus BX1633 A9606; 10-3): 1 µg/mL (≈ 2.47 µM) | MIC (Ent. cloacae A9656): > 125 µg/mL | MIC (Pr. morganii A15153): > 125 µg/mL | stability in normal saline ([3]; listed as 7-D-(-)α-amino-α-(p-acetoxyphenyl-acetamido)desacetoxycephalosporanic acid): stable in normal saline | stability in normal saline ([3]; listed as p-acetoxycephalexin): appears stable | MIC [1]: 32 µg/mL (≈ 78.9 µM)

CC(=O)Oc1ccc([C@@H](N)C(=O)N[C@@H]2C(=O)N3C(C(=O)O)=C(CSc4c[nH]nn4)CS[C@H]23)cc1 [RN 1396]
MIC (Ent. cloacae A9659): 32 µg/mL (≈ 63.4 µM) | MIC (S. aureus Smith A9537): 0.16 µg/mL (≈ 0.317 µM) | MIC (S. aureus Smith A9537; + 50% serum): 1 µg/mL | MIC (Ent. cloacae A9657): 1 µg/mL (≈ 1.98 µM) | MIC (K. pneumoniae A15130): 2 µg/mL (≈ 3.96 µM) | MIC (D. pneumoniae A9585): 0.04 µg/mL | MIC (K. pneumoniae A9977): 1 µg/mL (≈ 1.98 µM) | MIC (E. coli A9675): 8 µg/mL (≈ 15.9 µM) | MIC (Str. pyogenes A9604): 0.04 µg/mL | MIC (E. coli Juhl A15119): 2 µg/mL (≈ 3.96 µM) | MIC (Pr. mirabilis A9900): 0.5 µg/mL (≈ 0.991 µM) | MIC (Ps. aeruginosa A9843A): 125 µg/mL (≈ 248 µM) | MIC (Ser. marcescens A20019): 125 µg/mL (≈ 248 µM) | MIC (Sal. enteritidis A9531): 0.3 µg/mL (≈ 0.595 µM) | MIC (S. aureus BX1633 A9606; 10-2): 4 µg/mL (≈ 7.93 µM) | MIC (S. aureus BX1633 A9606; 10-3): 0.6 µg/mL (≈ 1.19 µM) | MIC (Ent. cloacae A9656): 125 µg/mL (≈ 248 µM) | MIC (Pr. morganii A15153): 63 µg/mL (≈ 125 µM) | MIC [1]: 8 µg/mL (≈ 15.9 µM)
